Laboratory results taken from patent US8664245B2, “Fumarate salts of a histamine H3 receptor antagonist” (Sanofi, priority 2009, dated 2014).
Each block holds one molecule with its values, some of them ahead of it.

How the values were obtained:
Format in all cases: physicochemical
[1] = Dynamic Vapor Sorption (DVS) water sorption profile
Description: The water sorption profile of a compound of the invention is determined using a SMS Instruments Dynamic Vapor Sorption Analyzer (DVS) Model DVS-Advantage. Relative humidity (RH) and weight are calibrated using standards. The powder of the relevant compound of the invention is loaded and dried at 0% RH for 3 hours prior to starting the experiment. The RH is stepped from 0.1 to 94.4% in 11 steps. The specimen weight is considered constant at each step when percent mass change is less than 0.01% over a 5-minute interval with a minimum absolute equilibration time of 15 minutes and maximum equilibration time of 180 minutes.

[2] = Stability testing: storage at 80° C./80% RH for 4 days; settings: solid
Description: 3. Storage at 80° C./80% RH for 4 Days
A glass desiccation chamber was pre-equilibrated overnight with a saturated KBr solution to 79.3% RH within an 80° C. oven. Approximately 100 mg of the difumarate monohydrate salt was weighed into respective scintillation vials and these vials were placed into the chamber, which was then sealed to maintain the environment. The sample was tested on day 4 for appearance, then diluted with ethanol to approximately 1 mg/mL and analyzed by HPLC versus a control (time 0) sample.

[3] = Stability testing: storage at 60° C. and ambient RH for two weeks; settings: solid, ambient RH, 14 days
Description: Stability Testing 1. Storage at 60° C. and Ambient RH for Two Weeks.
Approximately 400 mg of the difumarate monohydrate salt was weighed into a scintillation vial and placed into an oven set to 60° C. The sample was tested for appearance, then diluted with ethanol to approximately 1 mg/mL and analyzed for related substances and optical enantiomer by HPLC.

[4] = Stability testing: storage at 60° C./80% RH for two weeks; settings: solid, 14 days
Description: 2. Storage at 60° C./80% RH and Ambient RH for Two Weeks.
A glass desiccation chamber was pre-equilibrated overnight with a saturated KBr solution to 79.3% RH within an […] oven. Approximately 400 mg of the difumarate monohydrate was weighed into a scintillation vial and placed into the chamber, which was then sealed to maintain the environment. Samples were tested for appearance, then diluted with ethanol to approximately 1 mg/mL and analyzed for related substances and optical enantiomer by HPLC.

Change in Mass (%) - dry, Desorption ([1]; 0.6 % RH, 25° C.): 0.0%
Change in Mass (%) - dry, Sorption ([1]; 0.6 % RH, 25° C.): 0.0%
Change in Mass (%) - dry, Desorption ([1]; 10.2 % RH, 25° C.): 2.9%
Change in Mass (%) - dry, Sorption ([1]; 10.2 % RH, 25° C.): 2.8%
Change in Mass (%) - dry, Desorption ([1]; 19.6 % RH, 25° C.): 2.9%
Change in Mass (%) - dry, Sorption ([1]; 19.6 % RH, 25° C.): 2.9%
Change in Mass (%) - dry, Desorption ([1]; 29.4 % RH, 25° C.): 3.0%
Change in Mass (%) - dry, Sorption ([1]; 29.4 % RH, 25° C.): 3.0%
Change in Mass (%) - dry, Desorption ([1]; 38.5 % RH, 25° C.): 3.0%
Change in Mass (%) - dry, Sorption ([1]; 38.5 % RH, 25° C.): 3.0%
Change in Mass (%) - dry, Desorption ([1]; 48.5 % RH, 25° C.): 3.0%
Change in Mass (%) - dry, Sorption ([1]; 48.5 % RH, 25° C.): 3.0%
Change in Mass (%) - dry, Desorption ([1]; 57.5 % RH, 25° C.): 3.1%
Change in Mass (%) - dry, Sorption ([1]; 57.5 % RH, 25° C.): 3.1%
Change in Mass (%) - dry, Desorption ([1]; 67.1 % RH, 25° C.): 3.1%
Change in Mass (%) - dry, Sorption ([1]; 67.1 % RH, 25° C.): 3.1%
Change in Mass (%) - dry, Desorption ([1]; 77.0 % RH, 25° C.): 3.2%
Change in Mass (%) - dry, Sorption ([1]; 77.0 % RH, 25° C.): 3.1%
Change in Mass (%) - dry, Desorption ([1]; 87.0 % RH, 25° C.): 3.2%
Change in Mass (%) - dry, Sorption ([1]; 87.0 % RH, 25° C.): 3.2%
Change in Mass (%) - dry, Desorption ([1]; 94.2 % RH, 25° C.): 3.3%
Change in Mass (%) - dry, Sorption ([1]; 94.2 % RH, 25° C.): 3.3%
physical stability (physical form by XRPD and DSC-TGA) [3]: no observable change in physical form
physical stability (physical form by XRPD and DSC-TGA) [4]: no observable change in physical form
SMILES: CN1CCC[C@H]1CCNS(=O)(=O)c1ccc2c(c1)CN(CC1CCCCC1)CC2.O=C(O)/C=C/C(=O)O [difumarate monohydrate salt, 2-(cyclohexylmethyl)-N-{2-[(2S)-1-methylpyrrolidin-2-yl]ethyl}-1,2,3,4-tetrahydroisoquinoline-7-sulfonamide difumarate monohydrate]
chemical stability (HPLC versus time 0 control, appearance) [2]: stable in the solid state with no observable chemical change
chemical stability (related substances and optical enantiomer by HPLC, appearance) [3]: stable in the solid state with a minimal increase in impurity levels and no observable change in appearance
chemical stability (related substances and optical enantiomer by HPLC, appearance) [4]: stable in the solid state with a minimal increase in impurity levels and no observable change in appearance

Change in Mass (%) - dry, Desorption ([1]; 0.6 % RH, 25° C. (Table 8)): 0.00%
Change in Mass (%) - dry, Sorption ([1]; 0.6 % RH, 25° C. (Table 8)): 0.00%
Change in Mass (%) - dry, Desorption ([1]; 10.1 % RH, 25° C.): 0.56%
Change in Mass (%) - dry, Sorption ([1]; 10.1 % RH, 25° C.): 0.25%
Change in Mass (%) - dry, Desorption ([1]; 19.4 % RH, 25° C.): 6.71%
Change in Mass (%) - dry, Sorption ([1]; 19.4 % RH, 25° C.): 3.53%
Change in Mass (%) - dry, Desorption ([1]; 29.0 % RH, 25° C.): 6.85%
Change in Mass (%) - dry, Sorption ([1]; 29.0 % RH, 25° C.): 3.87%
Change in Mass (%) - dry, Desorption ([1]; 37.8 % RH, 25° C.): 6.89%
Change in Mass (%) - dry, Sorption ([1]; 37.8 % RH, 25° C.): 6.50%
Change in Mass (%) - dry, Desorption ([1]; 47.7 % RH, 25° C.): 6.97%
Change in Mass (%) - dry, Sorption ([1]; 47.7 % RH, 25° C.): 6.89%
Change in Mass (%) - dry, Desorption ([1]; 56.4 % RH, 25° C.): 7.10%
Change in Mass (%) - dry, Sorption ([1]; 56.4 % RH, 25° C.): 7.01%
Change in Mass (%) - dry, Desorption ([1]; 65.7 % RH, 25° C.): 7.21%
Change in Mass (%) - dry, Sorption ([1]; 65.7 % RH, 25° C.): 7.13%
Change in Mass (%) - dry, Desorption ([1]; 75.3 % RH, 25° C.): 7.33%
Change in Mass (%) - dry, Sorption ([1]; 75.3 % RH, 25° C.): 7.32%
Change in Mass (%) - dry, Desorption ([1]; 84.8 % RH, 25° C.): 7.66%
Change in Mass (%) - dry, Sorption ([1]; 84.8 % RH, 25° C.): 7.68%
Change in Mass (%) - dry, Desorption ([1]; 92.0 % RH, 25° C.): 8.25%
Change in Mass (%) - dry, Sorption ([1]; 92.0 % RH, 25° C.): 8.31%
SMILES: CN1CCC[C@H]1CCNS(=O)(=O)c1ccc2c(c1)CN(CC1CCCCC1)CC2.O=C(O)/C=C/C(=O)O [hemifumarate dihydrate, 2-(cyclohexylmethyl)-N-{2-[(2S)-1-methylpyrrolidin-2-yl]ethyl}-1,2,3,4-tetrahydroisoquinoline-7-sulfonamide hemifumarate dihydrate]
